Reference: US20230079819A1, “COMPOUNDS AND USES THEREOF” (Foghorn Therapeutics Inc., priority 2019, published 2023)

Legend:
BRG-1 = molecular target: T1, BRG-1 (Homo sapiens, UniProt P51532); test: ATPase catalytic activity of BRG-1, ADP-Glo in vitro biochemical assay; conditions: ATPase catalytic activity, 30 nM BRG-1, 400 μM ATP, read-out: BRG1 IP50 (μM)*
T1 construct: made in house; host or cells: High Five insect cells

BRM = molecular target: T2, BRM (Homo sapiens, UniProt P51531); test: ATPase catalytic activity of BRM, ADP-Glo in vitro biochemical assay; conditions: ATPase catalytic activity, 30 nM BRM, 400 μM ATP, read-out: BRM IP50 (μM)*
T2 construct: made in house; host or cells: High Five insect cells
T2 sequence (P51531 whole entry): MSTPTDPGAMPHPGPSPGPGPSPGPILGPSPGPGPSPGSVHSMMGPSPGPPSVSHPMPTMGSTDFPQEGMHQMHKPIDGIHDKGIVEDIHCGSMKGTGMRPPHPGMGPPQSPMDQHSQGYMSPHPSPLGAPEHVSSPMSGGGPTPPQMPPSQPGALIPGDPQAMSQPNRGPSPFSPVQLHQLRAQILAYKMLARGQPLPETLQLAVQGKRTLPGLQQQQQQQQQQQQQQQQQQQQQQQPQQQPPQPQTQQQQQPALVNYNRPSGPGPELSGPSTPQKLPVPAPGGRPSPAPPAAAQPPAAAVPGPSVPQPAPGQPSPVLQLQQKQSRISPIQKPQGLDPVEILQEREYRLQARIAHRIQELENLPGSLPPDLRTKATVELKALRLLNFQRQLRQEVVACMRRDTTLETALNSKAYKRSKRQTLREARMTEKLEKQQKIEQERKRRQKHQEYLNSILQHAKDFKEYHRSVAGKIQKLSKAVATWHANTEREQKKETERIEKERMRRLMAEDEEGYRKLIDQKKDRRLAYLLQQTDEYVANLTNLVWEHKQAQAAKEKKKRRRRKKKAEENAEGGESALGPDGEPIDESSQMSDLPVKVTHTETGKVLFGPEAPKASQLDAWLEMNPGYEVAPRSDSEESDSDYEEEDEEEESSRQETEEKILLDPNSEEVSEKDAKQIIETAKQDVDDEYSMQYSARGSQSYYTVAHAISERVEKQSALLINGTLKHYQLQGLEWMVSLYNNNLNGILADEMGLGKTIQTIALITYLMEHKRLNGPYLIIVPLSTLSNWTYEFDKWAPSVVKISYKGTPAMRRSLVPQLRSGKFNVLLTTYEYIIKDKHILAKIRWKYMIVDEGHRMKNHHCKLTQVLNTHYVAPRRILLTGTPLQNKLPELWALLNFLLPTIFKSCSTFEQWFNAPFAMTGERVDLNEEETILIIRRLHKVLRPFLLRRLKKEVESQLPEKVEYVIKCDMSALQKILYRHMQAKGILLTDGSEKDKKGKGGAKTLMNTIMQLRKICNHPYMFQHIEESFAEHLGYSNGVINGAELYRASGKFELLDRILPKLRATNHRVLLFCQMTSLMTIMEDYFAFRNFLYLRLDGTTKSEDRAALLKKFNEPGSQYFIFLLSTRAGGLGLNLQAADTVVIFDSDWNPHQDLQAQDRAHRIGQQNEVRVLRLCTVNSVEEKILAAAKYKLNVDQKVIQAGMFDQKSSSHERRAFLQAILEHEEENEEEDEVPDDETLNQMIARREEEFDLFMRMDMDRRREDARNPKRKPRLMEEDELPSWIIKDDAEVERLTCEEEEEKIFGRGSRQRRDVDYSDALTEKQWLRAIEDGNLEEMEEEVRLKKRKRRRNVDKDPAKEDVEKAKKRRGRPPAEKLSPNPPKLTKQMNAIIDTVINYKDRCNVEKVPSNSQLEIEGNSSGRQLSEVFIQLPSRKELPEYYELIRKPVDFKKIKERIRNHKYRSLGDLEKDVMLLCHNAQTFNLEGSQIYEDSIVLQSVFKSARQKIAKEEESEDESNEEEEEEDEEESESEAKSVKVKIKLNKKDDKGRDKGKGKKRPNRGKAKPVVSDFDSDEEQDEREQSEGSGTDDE

T1 sequence (P51532 whole entry): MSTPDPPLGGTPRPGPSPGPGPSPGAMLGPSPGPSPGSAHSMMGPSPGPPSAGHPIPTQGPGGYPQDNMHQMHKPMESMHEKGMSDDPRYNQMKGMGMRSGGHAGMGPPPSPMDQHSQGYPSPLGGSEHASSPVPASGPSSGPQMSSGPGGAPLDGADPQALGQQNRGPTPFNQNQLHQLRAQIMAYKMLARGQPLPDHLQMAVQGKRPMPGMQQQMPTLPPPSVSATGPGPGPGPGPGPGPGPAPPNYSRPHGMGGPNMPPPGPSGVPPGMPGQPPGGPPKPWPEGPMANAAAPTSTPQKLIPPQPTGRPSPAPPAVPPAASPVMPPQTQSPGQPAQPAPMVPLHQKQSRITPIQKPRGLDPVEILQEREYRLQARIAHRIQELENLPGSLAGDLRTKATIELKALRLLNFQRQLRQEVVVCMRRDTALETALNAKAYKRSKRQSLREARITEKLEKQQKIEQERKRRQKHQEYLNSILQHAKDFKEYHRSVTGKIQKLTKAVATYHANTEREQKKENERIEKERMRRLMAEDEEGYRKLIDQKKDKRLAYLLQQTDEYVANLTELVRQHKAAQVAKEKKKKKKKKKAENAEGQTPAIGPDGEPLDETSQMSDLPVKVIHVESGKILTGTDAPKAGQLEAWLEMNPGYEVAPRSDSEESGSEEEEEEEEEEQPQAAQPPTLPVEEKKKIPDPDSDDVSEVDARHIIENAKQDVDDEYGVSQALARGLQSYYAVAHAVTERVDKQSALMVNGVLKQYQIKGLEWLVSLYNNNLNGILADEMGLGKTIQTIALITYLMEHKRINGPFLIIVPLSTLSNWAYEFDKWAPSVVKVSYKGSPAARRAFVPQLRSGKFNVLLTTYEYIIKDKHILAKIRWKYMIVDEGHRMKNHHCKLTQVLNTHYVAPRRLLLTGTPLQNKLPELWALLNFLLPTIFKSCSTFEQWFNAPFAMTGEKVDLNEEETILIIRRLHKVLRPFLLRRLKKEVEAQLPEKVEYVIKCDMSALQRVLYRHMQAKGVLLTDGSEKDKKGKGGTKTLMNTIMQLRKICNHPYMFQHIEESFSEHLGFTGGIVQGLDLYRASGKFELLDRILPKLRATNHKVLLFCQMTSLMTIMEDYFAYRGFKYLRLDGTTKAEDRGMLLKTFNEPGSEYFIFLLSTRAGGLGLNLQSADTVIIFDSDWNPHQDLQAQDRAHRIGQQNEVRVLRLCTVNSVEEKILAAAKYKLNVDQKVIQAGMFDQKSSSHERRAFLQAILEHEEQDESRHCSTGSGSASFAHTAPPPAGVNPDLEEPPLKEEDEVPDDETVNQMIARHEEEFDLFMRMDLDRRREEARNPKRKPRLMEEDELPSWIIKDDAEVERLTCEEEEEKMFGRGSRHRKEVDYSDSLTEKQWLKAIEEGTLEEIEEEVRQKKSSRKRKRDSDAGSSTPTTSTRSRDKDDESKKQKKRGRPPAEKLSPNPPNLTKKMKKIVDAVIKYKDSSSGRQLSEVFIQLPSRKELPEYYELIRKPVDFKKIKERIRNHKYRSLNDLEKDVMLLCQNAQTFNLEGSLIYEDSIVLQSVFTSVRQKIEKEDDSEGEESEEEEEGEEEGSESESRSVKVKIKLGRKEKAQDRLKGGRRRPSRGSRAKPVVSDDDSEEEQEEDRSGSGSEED

Structure (SMILES)	IC50 (BRG-1) [µM]	IC50 (BRM) [µM]
CO[C@H]1CCCN(c2cccc(-c3csc(NC(=O)CNC(=O)c4ccn(C5(C)COC5)c4)n3)n2)C1 [Compound 313]	> 0.1	> 0.1
CC(C)(C)n1ccc(C(=O)NCC(=O)Nc2nc(-c3cccc(N4CCC(O)CC4)n3)cs2)c1 [Compound 314]	> 0.01	> 0.01
C[C@@H]1CN(c2cccc(-c3csc(NC(=O)CNC(=O)c4ccn(C5(C)COC5)c4)n3)n2)C[C@H](C)O1 [Compound 316]	> 0.01	< 0.01
CC(C)(C)n1ccc(C(=O)NCC(=O)Nc2nc(-c3cccc(N4CC(N5CCOCC5)C4)n3)cs2)c1 [Compound 317]	> 0.1	> 0.1
COC[C@@H]1CCCN(c2cccc(-c3csc(NC(=O)CNC(=O)c4ccn(C(C)(C)C)c4)n3)n2)C1 [Compound 318]	> 0.01	> 0.01
COC[C@H]1CCCN(c2cccc(-c3csc(NC(=O)CNC(=O)c4ccn(C(C)(C)C)c4)n3)n2)C1 [Compound 319]	> 0.01	> 0.01
CC1(n2ccc(C(=O)NCC(=O)Nc3nc(-c4ccnc(N5CCC(O)CC5)n4)cs3)c2)COC1 [Compound 321]	> 0.1	> 0.01
CC(C)(C)n1ccc(C(=O)NCC(=O)Nc2nc(-c3ccnc(N4CCC(O)CC4)n3)cs2)c1 [Compound 322]	> 0.01	> 0.01
C[C@@H]1CN(c2nccc(-c3csc(NC(=O)CNC(=O)c4ccn(C5(C)COC5)c4)n3)n2)C[C@H](C)O1 [Compound 324]	> 0.01	> 0.01
C[C@@H]1CN(c2nccc(-c3csc(NC(=O)CNC(=O)c4ccn(S(C)(=O)=O)c4)n3)n2)C[C@H](C)O1 [Compound 325]	< 0.01	< 0.01
C[C@@H]1CN(c2nccc(-c3csc(NC(=O)CNC(=O)c4ccn(C(C)(C)C)c4)n3)n2)C[C@H](C)O1 [Compound 326]	> 0.01	< 0.01
Cn1ccc(-c2cccc(-c3csc(NC(=O)CNC(=O)c4ccn(C5(C)COC5)c4)n3)n2)n1 [Compound 327, 1-(3-methyloxetan-3-yl)-N-[2-[[4-[6-(1-methylpyrazol-3-yl)-2-pyridyl]thiazol-2-yl]amino]-2-oxo-ethyl]pyrrole-3-carboxamide]	> 0.01	> 0.01
CO[C@@H]1CCCN(c2cccc(-c3csc(NC(=O)CNC(=O)c4ccn(C5(C)COC5)c4)n3)n2)C1 [Compound 330]	> 0.1	> 0.1
C[C@@H]1CN(c2cccc(-c3csc(NC(=O)CNC(=O)c4ccn(C(C)(C)C#N)c4)n3)n2)C[C@H](C)O1 [Compound 331]	< 0.01	< 0.01
C[C@@H]1CN(c2cccc(-c3csc(NC(=O)CNC(=O)c4ccn(C5(C(F)(F)F)CC5)c4)n3)n2)C[C@H](C)O1 [Compound 332]	> 0.1	> 0.01
C[C@@H]1CN(c2cccc(-c3csc(NC(=O)CNC(=O)c4ccn(C5(C)CC5)c4)n3)n2)C[C@H](C)O1 [Compound 333]	< 0.01	< 0.01
C[C@@H]1CCCN(c2cccc(-c3csc(NC(=O)CNC(=O)c4ccn(S(C)(=O)=O)c4)n3)n2)C1 [Compound 336]	> 0.01	> 0.01
CC1(n2ccc(C(=O)NCC(=O)Nc3nc(-c4cccc(N5CCC(O)CC5)n4)cs3)c2)COC1 [Compound 337]	> 0.01	> 0.01
CS(=O)(=O)n1ccc(C(=O)NCC(=O)Nc2nc(-c3cccc(N4CCC(F)CC4)n3)cs2)c1 [Compound 339]	> 0.01	> 0.01
C[C@H]1CCCN(c2cccc(-c3csc(NC(=O)CNC(=O)c4ccn(S(C)(=O)=O)c4)n3)n2)C1 [Compound 340]	> 0.01	> 0.01
CC1(n2ccc(C(=O)NCC(=O)Nc3nc(-c4cccc(N5CCOCC5)n4)cs3)c2)COC1 [Compound 341]	> 0.1	> 0.01
C[C@@H]1CN(c2cccc(-c3csc(NC(=O)CNC(=O)c4ccn(C5COC5)c4)n3)n2)C[C@H](C)O1 [Compound 343]	> 0.1	> 0.01
C[C@@H]1CN(c2cccc(-c3csc(NC(=O)CNC(=O)c4ccn(C(C)(C)C)n4)n3)n2)C[C@H](C)O1 [Compound 344]	> 0.01	> 0.01
COC[C@H](NC(=O)c1ccn(C(C)(C)C)n1)C(=O)Nc1nc(-c2ccc3ccn(C)c(=O)c3c2)cs1 [Compound 345]	> 0.1	> 0.1
CCn1ccc2ccc(-c3csc(NC(=O)[C@H](COC)NC(=O)c4ccn(C(C)(C)C)c4)n3)cc2c1=O [Compound 347]	> 0.01	> 0.01

Structure (SMILES)	IC50 (BRG-1) [µM]	IC50 (BRM) [µM]
C[C@H](NC(=O)c1ccn(C2(C)COC2)c1)C(=O)Nc1nc(-c2ccc3ccn(C)c(=O)c3c2)cs1 [Compound 348]	> 0.01	> 0.01
CS(=O)(=O)n1ccc(C(=O)NCC(=O)Nc2nc(-c3cccc(C#CC4COC4)c3)cs2)c1 [Compound 349]	> 0.01	> 0.01
COC[C@H](NC(=O)c1ccn(S(C)(=O)=O)c1)C(=O)Nc1nc(-c2ccc3c(c2)C(=O)N(C)CC3)cs1 [Compound 351]	> 0.01	> 0.01
COC[C@H](NC(=O)c1ccn(S(C)(=O)=O)c1)C(=O)Nc1nc(-c2cccc(-c3cnn(C)n3)c2)cs1 [Compound 352]	< 0.01	< 0.01
COC[C@H](NC(=O)c1ccn(S(C)(=O)=O)c1)C(=O)Nc1nc(-c2cccc(C3CC(C)(C)OC(C)(C)C3)c2)cs1 [Compound 353]	> 0.1	> 0.01
COC[C@H](NC(=O)c1ccn(S(C)(=O)=O)c1)C(=O)Nc1nc(-c2cccc(C3=CC(C)(C)OC(C)(C)C3)c2)cs1 [Compound 354]	> 0.01	> 0.01
C[C@H](NC(=O)c1ccn(S(C)(=O)=O)c1)C(=O)Nc1nc(-c2cccc(-c3cnn(C)n3)c2)cs1 [Compound 355]	> 0.01	> 0.01
COC[C@H](NC(=O)c1ccn(S(C)(=O)=O)c1)C(=O)Nc1nc(-c2cccc(-c3cccc(C)n3)c2)cs1 [Compound 356]	> 0.01	> 0.01
COC[C@H](NC(=O)c1ccn(S(C)(=O)=O)c1)C(=O)Nc1nc(-c2cccc(-c3ccnc(C)n3)c2)cs1 [Compound 357, N-[(1S)-1-(methoxymethyl)-2-[[4-[3-(2-methylpyrimidin-4-yl)phenyl]thiazol-2-yl]amino]-2-oxo-ethyl]-1-methylsulfonyl-pyrrole-3-carboxamide]	< 0.01	< 0.01
COC[C@H](NC(=O)c1ccn(S(C)(=O)=O)c1)C(=O)Nc1nc(-c2cccc(-c3cc(C)nc(C)n3)c2)cs1 [Compound 358, N-[(1S)-2-[[4-[3-(2,6-dimethylpyrimidin-4-yl)phenyl]thiazol-2-yl]amino]-1-(methoxymethyl)-2-oxo-ethyl]-1-methylsulfonyl-pyrrole-3-carboxamide]	< 0.01	< 0.01
COC[C@H](NC(=O)c1ccn(S(C)(=O)=O)c1)C(=O)Nc1nc(-c2cccc(-c3ccnc(C(F)F)c3)c2)cs1 [Compound 359]	< 0.01	< 0.01
COC[C@H](NC(=O)c1ccn(S(C)(=O)=O)c1)C(=O)Nc1nc(-c2cccc(-c3cnn(C)c3)c2)cs1 [Compound 360]	> 0.01	> 0.01
CC1(C#Cc2cccc(-c3csc(NC(=O)CNC(=O)c4ccn(S(C)(=O)=O)c4)n3)c2)COC1 [Compound 361, N-(2-((4-(3-((3-methyloxetan-3-yl)ethynyl)phenyl)thiazol-2-yl)amino)-2-oxoethyl)-1-(methylsulfonyl)-1H-pyrrole-3-carboxamide]	> 0.01	> 0.01
COC(C)(C)C#Cc1cccc(-c2csc(NC(=O)CNC(=O)c3ccn(C(C)(C)C)c3)n2)n1 [Compound 362, 1-(tert-butyl)-N-(2-((4-(6-(3-methoxy-3-methylbut-1-yn-1-yl)pyridin-2-yl)thiazol-2-yl)amino)-2-oxoethyl)-1H-pyrrole-3-carboxamide]	> 0.1	> 0.1
COC(C)(C)C#Cc1cccc(-c2csc(NC(=O)CNC(=O)c3ccn(S(C)(=O)=O)c3)n2)c1 [Compound 363]	> 0.01	> 0.01
C[C@H](NC(=O)c1ccn(S(C)(=O)=O)c1)C(=O)Nc1nc(-c2cccc(N3CCC3)c2)cs1 [Compound 364]	> 0.01	> 0.01
C[C@H](NC(=O)c1ccn(S(C)(=O)=O)c1)C(=O)Nc1nc(-c2cccc(N3CC(O)C3)c2)cs1 [Compound 365]	> 0.01	> 0.01
COC[C@H](NC(=O)c1ccn(S(C)(=O)=O)c1)C(=O)Nc1nc(-c2cccc(N3CCC3)c2)cs1 [Compound 366]	> 0.01	< 0.01
COC[C@H](NC(=O)c1ccn(S(C)(=O)=O)c1)C(=O)Nc1nc(-c2cccc(N3CC(OC)C3)c2)cs1 [Compound 367]	> 0.01	> 0.01
COC[C@H](NC(=O)c1ccn(S(C)(=O)=O)c1)C(=O)Nc1nc(-c2cccc(N3C[C@@H](C)O[C@@H](C)C3)c2F)cs1 [Compound 368]	> 0.01	> 0.01
COC[C@H](NC(=O)c1ccn(S(C)(=O)=O)c1)C(=O)Nc1nc(-c2cccc(N3CCC(O)CC3)c2)cs1 [Compound 369]	> 0.01	< 0.01
C[C@H](NC(=O)c1ccn(S(C)(=O)=O)c1)C(=O)Nc1nc(-c2cccc(N3CCC(O)CC3)c2)cs1 [Compound 370]	> 0.01	> 0.01
COC[C@H](NC(=O)c1ccn(S(C)(=O)=O)c1)C(=O)Nc1nc(-c2cccc(N3C[C@@H](C)O[C@@H](C)C3)c2)cs1 [Compound 371]	< 0.01	< 0.01
COC[C@H](NC(=O)c1ccn(S(C)(=O)=O)c1)C(=O)Nc1nc(-c2cccc(N3CCO[C@H](C)C3)c2)cs1 [Compound 372]	> 0.01	< 0.01
COC[C@H](NC(=O)c1ccn(S(C)(=O)=O)c1)C(=O)Nc1nc(-c2cccc(N3CCO[C@@H](C)C3)c2)cs1 [Compound 373]	> 0.01	< 0.01
